Laboratory results as given in patent US20250082914A1 (priority 2022, published 2025).

Columns and labels:
[1] = In vitro drug release, USP device type II, SGF then SIF; format: physicochemical; settings: after switch from SGF pH 1.2 (30 min) to SIF pH 6.8; 37° C., 100 rpm; 8 mm device, 20 mg desmopressin, 40 mg PVP, enteric capsule
Method: The temperature was set at 37° C., and the rotating speed was at 100 rpm. Aliquots of 1 mL were sampled at the predetermined time points and the sampled volume was replaced with fresh SGF or SIF buffer. Quantification was carried by HPLC (VWR Hitachi Chromaster system with 5160 pump, 5260 autosampler, 5310 column oven and 5430 diode array detector, VWR International, Radnor, PA) with the UV wavelength set at 280 nm. […] At the intestinal pH, desmopressin started being released when the solvent was switched to SIF and was completely released within about 20 minutes. […] The drug release kinetics is also controlled with the polymeric excipient.

[2] = in the presence of permeation enhancers; cited from earlier work

Row | Molecule | time to complete release of desmopressin [1] | oral bioavailability [2]
1 | NC(=O)CC[C@@H]1NC(=O)[C@H](Cc2ccccc2)NC(=O)[C@H](Cc2ccc(O)cc2)NC(=O)CCSSC[C@@H](C(=O)N2CCC[C@H]2C(=O)N[C@H](CCCN=C(N)N)C(=O)NCC(N)=O)NC(=O)[C@H](CC(N)=O)NC1=O [desmopressin] | ≤ 20 min | –
2 | C[C@@H](O)[C@@H]1NC(=O)[C@H](CCCCN)NC(=O)[C@@H](Cc2c[nH]c3ccccc23)NC(=O)[C@H](Cc2ccccc2)NC(=O)[C@@H](NC(=O)[C@H](N)Cc2ccccc2)CSSC[C@@H](C(=O)N[C@H](CO)[C@@H](C)O)NC1=O [octreotride] | – | 0.5-1%
3 | semaglutide | – | ~1%
